Data set [1] deals with HT-29 colon carcinoma. In words: MTS growth inhibition assay, single agent studies. Type of data set: cell-based. The settings on record: Homo sapiens, HT-29, 72 h; 3 days in culture. The procedure: (§1) Human tumor cell lines MiaPaCa-2 pancreatic carcinoma (mutant ras, gemcitabine sensitive) and HT-29 colon carcinoma (polyposis type, mutant p53 and APC, chemosensitive) were purchased from the ATCC (Rockville, Md.). […] Cells grown to 70% confluency were trypsinized and resuspended into cell culture medium at a concentration of 10^5 cells/ml. On Day 0 of the experiment, a […] aliquot of tumor cells was plated into internal wells of a 96-well microtiter plate at an appropriate density (in the range of 2×10^3 to 10^4 cells/well). The cells were incubated for 24 hours to allow maximum adhesion prior to exposure with test agents. […] The starting concentration and the test range of 5-FU were determined empirically for each cell line. Treatment with 5-FU started on Day 1. There were 6 replicates for each dose determination. Both drugs were added once without the medium change. After 3 days in culture, the number of proliferating cells was measured by the MTS assay described below. The test was repeated twice to quantify growth inhibitory activity. […] IC50 values were generated from two separate experiments. […] The MTS reagent is a tetrazolium compound and an electron coupling reagent. The MTS tetrazolium compound is bioreduced by cells into a colored formazan product soluble in cell culture medium. The conversion is catalyzed by NADPH or NADH produced by dehydrogenase enzymes in metabolically active cells. The MTS assay is a colorimetic assay based upon the ability of viable cells to convert […] to formazan; the quantity of formazan product, as measured by the 490 nm absorbance, is directly proportional to the number of viable cells in culture. An automated procedure determines the IC50 value. Exponentially growing cells in […] of cell culture medium are plated on Day 0 in 96-well microtiter plates at a concentration of 10^4 cells/well. […] At the end of the designated time period, 100 microL of growth medium is removed. […] Absorbance is documented on a Dynex HD microplate reader at a wavelength of 490 nm. The data was calculated as percent growth inhibition, wherein 0% represents the mean value in wells to which only vehicle (cell culture medium) was added. The % Growth Inhibition was calculated as follows: % Growth Inhibition=(1−(ODtest/ODvehicle)×100, where ODtest is the optical density of the tested sample, and ODvehicle is the optical density of the vehicle in which each respective drug is dissolved. […] To determine the interaction, there must be a significant difference that exists between the combination absorbance values and both endpoint values. For example, if the values are statistically (p<0.05) above or below the absorbance values of either agent tested alone, then antagonism or synergy is described. […]

Data set [2] deals with MiaPaCa-2 pancreatic carcinoma. In words: MTS growth inhibition assay, single agent studies. Type of data set: cell-based. Conditions: Homo sapiens, MIA PaCa-2, 72 h; 3 days in culture. As for the experimental part: as §1
For data set [3], the system named is MV522 cells. In words: Sulforhodamine B (SRB) growth inhibition assay. In kind it is cell-based. Conditions: Homo sapiens, 72 hours treatment. As for the experimental part:
(§2) The human lung tumor cell lines were MV522 and NCI-H23, both of which were derived from tumors displaying histopathology of adenocarcinoma, one of the at least three types of NSCLC. The NCI-H23 tumor cell line is available from the ATCC (Rockville, Md.), and the MV522 cell line was obtained by Dr. M. J. Kelner of the University of California. The cells were cultured in RPMI medium (Nova Tech, Grand Island, N.Y.) at 37° C. in a humidified atmosphere containing 5% CO2. For passaging, cells grown in 75 cm^2 flasks (60–70% confluency) were washed with PBS and dislodged from the flasks with trypsin (Gibco BRL) before being passaged. Cells used for the experiments described below were centrifuged and resuspended in cell culture medium at a concentration of 10^5 cells/mL. A 100 microliter aliquot (ten thousand cells) was plated into each well of a 96-well microtiter plate.
(§3) Docetaxel (Taxotere™, Aventis Pharmaceuticals, Inc.) solubilized in 100% DMSO and diluted 1000×to the desired concentration (0.1% DMSO final concentration), was used as a positive control. […] Exponentially growing cells in 100 microliters of cell culture medium were plated on Day 0 in 96-well microtiter plates at a concentration of 10^4 cells/well. On Day 1, drugs were added to each well of the microtiter plate with the designated concentration in 100 microliter aliquots of cell culture medium and incubated at 37° C. in a humidified incubator (5% CO2/95% HEPA filtered air). After three days of treatment, adherent cells were fixed by adding 50 microliters of cold 50% trichloracetic acid to each well and incubating for one hour at 4° C. The supernatant was discarded, and plates were washed twice with de-ionized water and air-dried. One hundred microliters of SRB solution were added to each well of the plate and incubated ten minutes at room temperature. Unbound SRB stain was removed by washing twice with 1% acetic acid. The bound SRB stain was solubilized with 10 mM Tris buffer, and the optical densities read at a single wavelength of 515 nm.
(§4) IC50 values (50% effective dose) were calculated from two different experiments, each of which involved 6 replicates for each dose tested. […]

For data set [4], the system named is NCI-H23 cells. The data set can be described thus: Sulforhodamine B (SRB) growth inhibition assay. In kind it is cell-based. The settings on record: Homo sapiens, 72 hours treatment. As for the experimental part:
as §2, §3, §4

The subject of data set [5] is MV522 human tumor carcinomas. The data set can be described thus: Tumor growth delay study in mouse MV522 xenograft model (TH-PT-001). As for the experimental part:
Female nude mice (nu/nu) between 5 and 6 weeks of age and weighing approximately 20 g were obtained from Harlan, Inc. (Madison, Wis.). Animals were implanted subcutaneously by trocar with fragments of Mv522 human tumor carcinomas harvested from subcutaneously growing tumors in nude mice hosts. When the tumors were approximately 71 mg in size (11 days following inoculation), the animals were pair-matched into treatment and control groups. Each group contained 10 tumored mice. Each mouse was ear-tagged and followed individually throughout the experiment. Initial doses were given on Day 1 following pair-matching. […] Sterile water was administered orally bid×5 to end to serve as the negative control. Mice were weighed twice weekly, and tumor measurements were obtained using calipers twice weekly, starting on Day 1. These tumor measurements were converted to mg tumor weight by the standard formula (W^2×L)/2. Each mouse was sacrificed when its tumor weight reached 1000 mg. In this test, the average day of sacrifice was determined for all groups and the tumor growth delay (TGD) for each treatment group, compared to the control group, was calculated.
All of these studies are outlined in the following table.

Data set [6] is described as follows: MTD study of combined 2-DG/cisplatin treatment versus cisplatin alone (TH-PT-002). Conditions: cisplatin 2, 3, or 4 mg/kg/dose i.p. qd Days 6–10 with or without 2-DG 2000 mg/kg/dose oral qd days 1–10. As for the experimental part: The maximum tolerated dose determination for this study was conducted using female nude mice (nu/nu) between 5 and 6 weeks of age weighing approximately 20 g (Harlan, Inc., Madison, Wis.). Dosing began on Day 1. […] […] Individual mouse weights in grams were recorded twice weekly throughout the study. The average weight per group was calculated, and weight gain or loss was determined by comparing the current Day's average to the Day 1 average for that same group. The study was terminated on Day 21.

The subject of data set [7] is MV522 non-small cell lung cancer (NSCLC) xenograft. The data set can be described thus: Third efficacy study, paclitaxel alone or with oral 2-DG, tumor growth delay (TH-PT-003). In kind it is in vivo, nude mice. Conditions: paclitaxel alone 10 mg/kg/dose i.p. days 6–10. As for the experimental part:
An increase in efficacy was defined as a significant (P<0.05) increase in the time for the tumor to grow to 1000 mg (tumor growth delay—TGD) compared to vehicle alone or, for combination treatment groups, chemotherapy alone, as calculated using a two-tailed t-test. Female nude mice, ten per treatment arm, were implanted subcutaneously (s.c.) with trocar fragments of MV522 tumors harvested from s.c. tumors growing in nude mice hosts. Body weights and tumor measurements were taken biweekly. When tumors reached ˜70 mg, treatment was started. Mice were sacrificed when their individual tumor reached ˜1000 mg. All doses are reported as mg/kg/dose. […] The mice were then dosed i.p. with 10 mg/kg/dose paclitaxel once a day on days 6–10. […] Dosing with paclitaxel began when the tumors were approximately 200 mg.

Data set [8] has as its system H460, H23, H522 and H661 cells. In words: Inhibition of proliferation of NSCLC tumor cell lines. In kind it is cell-based. The settings on record: most human NSCLC tumor cell lines.
Data set [9] has as its system H2347 cells. The data set can be described thus: Inhibition of proliferation of Taxol-resistant cell line. Conditions: Homo sapiens, NCI-H2347. In kind it is cell-based.
Data set [10] deals with human non-small cell lung cancer (NSCLC) tumor cell lines. The data set can be described thus: Proliferation with simultaneous 2-DG and Taxol treatment. Type of data set: cell-based. Conditions: 200 nM Taxol alone, one test.
In data set [11] the test system is MV522 xenograft. In words: 2-DG/Paclitaxel dosing study in mouse MV522 xenograft model. The settings on record: paclitaxel i.p. Type of data set: in vivo.
Description: The mouse MV522 xenograft model substantially as described in Example 2 was used to compare the effects of dosing 2-DG orally (in water) either at a single dose of 4 g/kg or in multiple doses (twice a day at 2 g/kg) in various combinations with paclitaxel dosed i.p. as a single dose (30 mg/kg) or in multiple doses (once daily at 10 mg/kg).

The structures appear in SMILES notation.

As for `O=c1[nH]cc(F)c(=O)[nH]1` [5-FU, 5-fluoro-2,4(1H,3H)-pyrimidinedione, reference compound], the IC50 in data set [1] came to 1.9 µg/mL; in [2], 2.58 µg/mL.

With `CC(=O)O[C@@]12CO[C@@H]1C[C@H](O)[C@@]1(C)C(=O)[C@H](O)C3=C(C)[C@@H](OC(=O)[C@H](O)[C@@H](NC(=O)OC(C)(C)C)c4ccccc4)C[C@@](O)([C@@H](OC(=O)c4ccccc4)[C@H]21)C3(C)C` [Docetaxel, reference compound], the values for the IC50 in data set [3] and in data set [4] were 2.11 ± 0.601 nM and 1.64 ± 0.211 nM, respectively.

For the compound `N.N.[Cl][Pt][Cl]` [cisplatin, cis-Diaminedichloroplatinum (II)], the “TGD (tumor growth delay)” value in data set [5] (cisplatin 1 mg/kg i.p. Days 1–5) came out at 15.8 days; in data set [5] (cisplatin 2 mg/kg i.p. Days 1–5) it was 32.6 days. Moreover, the “mean day of sacrifice” value is listed as 42.3+/−0.9 in data set [5] (cisplatin single agent 1 mg/kg i.p. Days 1–5) and 59.1+/−5.7 in [5] (cisplatin single agent 2 mg/kg i.p. Days 1–5). Besides, in [5] (high dose cisplatin group (2 mg/kg), 10 mice), the complete regressions result is “Two mice”. Moreover, the “deaths during the 21 days of the study” value in [6] is on record as “No mice died”.

Take `CC(=O)O[C@H]1C(=O)[C@@]2(C)[C@H]([C@H](OC(=O)c3ccccc3)[C@]3(O)C[C@H](OC(=O)[C@H](O)[C@@H](NC(=O)c4ccccc4)c4ccccc4)C(C)=C1C3(C)C)[C@]1(OC(C)=O)CO[C@@H]1C[C@@H]2O` [paclitaxel]: the toxic deaths result in [5] (paclitaxel 16 mg/kg i.p. Days 1–5) is “no toxic deaths”. Moreover, the complete regression entry in [5] (paclitaxel 16 mg/kg i.p. Days 1–5, 10 mice) was “one mouse experiencing a complete regression”. In addition, in data set [5] (paclitaxel 16 mg/kg i.p. Days 1–5, sacrifice at tumor weight 1000 mg), the “mean day of sacrifice” value is reported as 56.8+/−4.3. In addition, the “TGD (tumor growth delay)” value in data set [5] (paclitaxel 16 mg/kg i.p. Days 1–5, vs negative control) came out at 34.4 days. The deaths result in [7] is on record as “One death per group”. Further, the IC50 in data set [8] was 50 to 200 nM; in data set [9], more than 1000 nM. The inhibition of proliferation in [10] is approximately 20%. Further, in data set [11], the “efficacy of single dose 30 mg/kg versus 5 doses at 10 mg/kg” value is on record as “more effective”.
